Test results: patent publication US20240058481A1, “RADIOLABELLED COMPOUNDS FOR DIAGNOSING CHOLINERGIC NEURODEGENERATIVE DISEASES” (CENTRE NATIONAL DE LA RECHERCHE SCIENTIFIQUE, priority 2020, published 2024)

How the values were obtained:
VAChT [1] = target: T1, VAChT (Rattus norvegicus, UniProt Q62666); assay: Radioligand ([3H]vesamicol) binding on rat brain membrane preparation, affinity for VAChT; details: rat brain membranes, mean ± standard deviation of 3 independent experiments, Cheng & Prussoff
T1 construct: The entire brain was sampled and dissected in different regions: cortex, striatum, hippocampus, thalamus and cerebellum; from tissue; host or cells: brain regions of male Wistar rats (in vivo tracer injection, ex vivo counting)
T1 sequence (Q62666 1-530): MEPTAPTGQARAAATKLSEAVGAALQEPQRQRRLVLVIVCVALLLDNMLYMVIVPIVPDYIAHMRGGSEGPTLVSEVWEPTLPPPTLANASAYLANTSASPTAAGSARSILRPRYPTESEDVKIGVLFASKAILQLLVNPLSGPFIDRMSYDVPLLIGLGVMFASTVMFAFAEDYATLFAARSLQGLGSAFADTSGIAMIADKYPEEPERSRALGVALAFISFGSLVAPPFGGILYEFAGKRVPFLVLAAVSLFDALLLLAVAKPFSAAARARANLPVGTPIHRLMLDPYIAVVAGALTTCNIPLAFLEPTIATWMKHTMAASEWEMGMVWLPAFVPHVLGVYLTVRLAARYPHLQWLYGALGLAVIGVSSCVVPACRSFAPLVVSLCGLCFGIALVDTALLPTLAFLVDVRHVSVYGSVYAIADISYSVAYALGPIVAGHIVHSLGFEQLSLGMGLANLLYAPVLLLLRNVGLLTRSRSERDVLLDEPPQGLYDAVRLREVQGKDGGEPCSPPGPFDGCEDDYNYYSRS
Experimental: Measurement of the affinity of the different compounds for VAChT was obtained by radioligand binding method on rat brain membrane preparation, following the method described in Scheunemann et al. (Bioorg Med Chem 2004;12:1459-65). The L-(−)-vesamicol was supplied by Sigma Aldrich (Saint-Quentin-Fallavier, France) and [^3H]vesamicol (specific activity 1705.7 GBq/mmol) by Perkin-Elmer (Courtaboeuf, France). The IC50 values were determined graphically for each compound and Ki (inhibition constant) was calculated following the method of Cheng & Prussoff (Biochemical pharmacology 1973;22:3099-108). The results are expressed as a mean of Ki values±standard deviation from the mean after 3 independent experiments.

VAChT [2] = target: T1, VAChT; assay: Biodistribution: cerebral accumulation of the tracers in the rat; format: in vivo; details: for Striatum/cerebellum accumulation ratio / Cerebral accumulation, cerebellum / Cerebral accumulation, striatum: 2 hours after i.v. injection of the tracer; for Cerebral accumulation, cerebellum / Cerebral accumulation, striatum: ± SEM, n=6/group
Experimental: Animals: The experiments were conducted in male rates of Wistar strain weighing 250-300 g (Breeding Centre R. Janvier, Le Genest St Isle, France). All procedures were carried out paying heed to European regulations on animal experimentation (2010/63/EU) with authorisation from the regional ethics committee on animal experiments: Comité Régional d'Ethique en Expérimentation Animale.
Biodistribution studies: The rats in the control group were given an i.v. injection of tracer (4-6 MBq in 0.3 mL) under isoflurane gas anaesthesia (n=6/group). In the VES group (n=6/group), injection of the tracer was preceded (5 min) by an i.v. injection of vesamicol (0.5 μmol/kg). The rats were sacrificed by decapitation 2 h after injection of the tracer. The entire brain was sampled and dissected in different regions: cortex, striatum, hippocampus, thalamus and cerebellum. Blood and bone fractions were also sampled. The biological samples were weighed, the radioactivity thereof was measured with a γ counter (2480 Gamma counter Wizard, Perkin Elmer), and the percentage of injected dose/g of tissue (% ID/g) was calculated.

Row | Ki (VAChT [1]) [nM] | Striatum/cerebellum accumulation ratio (VAChT [2]; rat) | Cerebral accumulation, cerebellum (VAChT [2]; rat) [% ID/g] | Cerebral accumulation, striatum (VAChT [2]; rat) [% ID/g] | Structure (SMILES) | further results
1 | 61 ± 2.8 |  |  |  | OC1Cc2cccc(OCCF)c2CC1N1CCC(c2ccccc2)CC1 (single isomer, unassigned; (-)) [(−)-FEOBV, 5-fluoroethoxybenzovesamicol, reference compound] | 
2 |  | 3.59 | 0.844 ± 0.025 | 0.235 ± 0.011 | OC1Cc2cccc(OCCF)c2CC1N1CCC(c2ccccc2)CC1 (stereo not shown) [[^18F]FEOBV, 5-fluoroethoxybenzovesamicol, reference compound] | 

The next lines start with the molecule.

Row | Structure (SMILES) | Ki (VAChT [1]) [nM] | Striatum/cerebellum accumulation ratio (VAChT [2]; rat) | Cerebral accumulation, cerebellum (VAChT [2]; rat) [% ID/g] | Cerebral accumulation, striatum (VAChT [2]; rat) [% ID/g] | further results
3 | O[C@H]1Cc2cccc(F)c2C[C@@H]1N1CCC(c2ccccc2)CC1 [(+)-(S,S)-5-FBVM. E2, (2S,3S)-5-Fluoro-3-(4-phenylpiperidin-1-yl)-1,2,3,4-tetrahydronaphthalen-2-ol] | 35 |  |  |  | 
4 | OC1Cc2cccc(F)c2CC1N1CCC(c2ccccc2)CC1 (racemic) [rac (+/−)-5-FBVM Trans, 5-Fluoro-3-(4-phenylpiperidin-1-yl)-1,2,3,4-tetrahydronaphthalen-2-ol] | 1.3 |  |  |  | In vivo stability (VAChT [2]; in vivo PET tracer in the rat): good; Passing through the blood-brain barrier (VAChT [2]; in vivo PET tracer in the rat): excellent
5 | O[C@H]1Cc2cccc([18F])c2C[C@@H]1N1CCC(c2ccccc2)CC1 [(+)-(S,S)-5-[^18F]FBVM ^18F E2] |  | 1.52 | 0.215 ± 0.011 | 0.327 ± 0.015 | 
6 | O[C@@H]1Cc2cccc(F)c2C[C@H]1N1CCC(c2ccccc2)CC1 [(−)-(R,R)-5-FBVM E1, (2R,3R)-5-Fluoro-3-(4-phenylpiperidin-1-yl)-1,2,3,4-tetrahydronaphthalen-2-ol] | 0.9 |  |  |  | 
7 | O[C@@H]1Cc2cccc([18F])c2C[C@H]1N1CCC(c2ccccc2)CC1 [(−)-(R,R)-5-FBVM ^18F E1] |  | 5.84 | 0.232 ± 0.017 | 1.356 ± 0.069 | Reduction of accumulation in the striatum after (−)vesamicol pre-administration (VAChT [2]; rat, (−)vesamicol 0.5 μmole/kg, 5 minutes before injection of the tracer): 46%
